Assay results taken from patent US10800755B2, “2,6-disubstituted pyridine derivative” (Sumitomo Dainippon Pharma Co., Ltd., priority 2017, dated 2020).

Assays:
human D4 receptor [1] = target: T1, human D4 receptor (Homo sapiens (Human), UniProt P21917); assay: Test 2: binding activity to human D4 receptor ([3H] dopamine, CHO cell membrane); settings: [3H] dopamine; read-out: D4 binding affinity (Ki value)
Protocol: (§1) Test 2: Evaluation of Binding Activity to Human 5-HT1A Receptor, Human D4 Receptor, and Human D2 Receptor
(§2) CHO cell membrane fraction in which human 5-HT1A receptor, human D4 receptor, and human D2 receptor were expressed was purchased from PerkinElmer Co., Ltd. In the evaluation test of binding, the test compound dissolved in DMSO, each receptor membrane preparation diluted with buffer solution, and [3H] […] The nonspecific binding to each receptor was evaluated by a competition binding experiment in the presence of 10 μmol/L 8-OH-DPAT, 10 μmol/L dopamine, or 10 μmol/L spiperone, respectively.

human 5-HT1A receptor [2] = target: T2, human 5-HT1A receptor (Homo sapiens (Human), UniProt P08908); assay: Test 2: binding activity to human 5-HT1A receptor ([3H] 8-OH-DPAT, CHO cell membrane); settings: [3H] 8-OH-DPAT; read-out: 5-HT1A binding affinity (Ki value)
T2 sequence (P08908 whole entry): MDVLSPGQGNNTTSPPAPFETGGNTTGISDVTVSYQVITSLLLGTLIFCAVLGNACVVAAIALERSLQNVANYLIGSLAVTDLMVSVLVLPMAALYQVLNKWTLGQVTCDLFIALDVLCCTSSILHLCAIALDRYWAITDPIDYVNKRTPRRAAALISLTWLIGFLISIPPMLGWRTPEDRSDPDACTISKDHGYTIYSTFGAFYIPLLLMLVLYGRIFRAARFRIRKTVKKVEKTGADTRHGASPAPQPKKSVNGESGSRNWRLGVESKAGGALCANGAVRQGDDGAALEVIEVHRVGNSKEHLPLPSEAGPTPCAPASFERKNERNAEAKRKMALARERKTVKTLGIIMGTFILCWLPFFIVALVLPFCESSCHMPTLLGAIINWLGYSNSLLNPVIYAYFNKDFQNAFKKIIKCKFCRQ
Protocol: as §1, §2

human 5-HT1A receptor [3] = target: T2, human 5-HT1A receptor; assay: Test 1: agonistic activity for human 5-HT1A receptor (aequorin/Gα16 luminescence in CHO-K1 cell); type: cell-based; settings: for 5-HT1A agonistic activity Emax / Emax: 100% = 10 μmol/L endogenous ligand; for EC50: CHO-K1 cell, aequorin luminescence; for Emax: CHO-K1
Protocol: (§3) Test 1: Evaluation of Agonistic Activity for Human 5-HT1A Receptor and Human D4 Receptor
(§4) Aequorin, Gα16 proteins, and each receptor were transiently expressed in CHO-K1 cell (Chinese hamster ovary), and seeded to 384-well plate. The plate was incubated in a CO2 incubator at 37° C. for 24 hours. Each example compound dissolved in DMSO was added thereto, and the change of luminescence amount was measured with Hamamatsu FDSS/μCELL System (Hamamatsu Photonics).

human D2 receptor = human D2 receptor (Homo sapiens (Human), UniProt P14416); assay: Test 2: binding activity to human D2 receptor ([3H] spiperone, CHO cell membrane); settings: [3H] spiperone; read-out: D2 binding affinity (Ki value)
Sequence of human D2 receptor (P14416 whole entry): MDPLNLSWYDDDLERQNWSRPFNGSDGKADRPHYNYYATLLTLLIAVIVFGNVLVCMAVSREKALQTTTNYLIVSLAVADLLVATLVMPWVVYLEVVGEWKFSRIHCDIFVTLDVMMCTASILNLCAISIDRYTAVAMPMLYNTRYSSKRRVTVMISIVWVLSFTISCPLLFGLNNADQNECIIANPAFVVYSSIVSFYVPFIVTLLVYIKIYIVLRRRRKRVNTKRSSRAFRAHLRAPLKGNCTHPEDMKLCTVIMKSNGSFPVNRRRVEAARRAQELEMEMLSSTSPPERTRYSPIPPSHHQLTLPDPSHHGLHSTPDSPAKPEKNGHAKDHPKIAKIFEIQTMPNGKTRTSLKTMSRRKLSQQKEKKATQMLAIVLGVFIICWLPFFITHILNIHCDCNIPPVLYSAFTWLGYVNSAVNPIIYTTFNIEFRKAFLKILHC
Protocol: as §1, §2

[4] = Test 3-1: metabolic stability test of human liver microsome (0.1 mg/mL); type: in vitro ADME; settings: test compound 0.1 μmol/L, 37° C., 30 minutes
Protocol: Test 3-1: Metabolic Stability Test of Human Liver Microsome
(§5) The stability of the present compounds for human liver microsome metabolism was evaluated as mentioned below. The used human liver microsome was obtained from Xenontech. Human liver microsome, NADPH, and each test compound were mixed in 25 mmol/L phosphate buffer solution (pH 7.4) to adjust each concentration as shown below, and the mixture was incubated at 37° C. for 30 minutes. • human liver microsome: 0.1 mg/mL • NAPDH: 3.2 mmol/L • test compound: 0.1 μmol/L
(§6) The residual ratio of the test compound in each sample after the incubation for 30 minutes was measured with a LC-MS, and the metabolic stability of human liver microsome was calculated about each test compound with the following formula. Metabolic stability of human liver microsome (mL/min/mg protein)=−LN (residual ratio)/“reaction time”/“concentration of human liver microsome”

hERG channel = hERG channel (Homo sapiens (Human), UniProt Q12809); assay: Test 5-1: activity for inhibiting hERG channel (whole-cell patch clamp, hERG-CHO cell, Qpatch); type: cell-based; settings: read-out: hERG inhibition IC50
Sequence of hERG channel (Q12809 whole entry): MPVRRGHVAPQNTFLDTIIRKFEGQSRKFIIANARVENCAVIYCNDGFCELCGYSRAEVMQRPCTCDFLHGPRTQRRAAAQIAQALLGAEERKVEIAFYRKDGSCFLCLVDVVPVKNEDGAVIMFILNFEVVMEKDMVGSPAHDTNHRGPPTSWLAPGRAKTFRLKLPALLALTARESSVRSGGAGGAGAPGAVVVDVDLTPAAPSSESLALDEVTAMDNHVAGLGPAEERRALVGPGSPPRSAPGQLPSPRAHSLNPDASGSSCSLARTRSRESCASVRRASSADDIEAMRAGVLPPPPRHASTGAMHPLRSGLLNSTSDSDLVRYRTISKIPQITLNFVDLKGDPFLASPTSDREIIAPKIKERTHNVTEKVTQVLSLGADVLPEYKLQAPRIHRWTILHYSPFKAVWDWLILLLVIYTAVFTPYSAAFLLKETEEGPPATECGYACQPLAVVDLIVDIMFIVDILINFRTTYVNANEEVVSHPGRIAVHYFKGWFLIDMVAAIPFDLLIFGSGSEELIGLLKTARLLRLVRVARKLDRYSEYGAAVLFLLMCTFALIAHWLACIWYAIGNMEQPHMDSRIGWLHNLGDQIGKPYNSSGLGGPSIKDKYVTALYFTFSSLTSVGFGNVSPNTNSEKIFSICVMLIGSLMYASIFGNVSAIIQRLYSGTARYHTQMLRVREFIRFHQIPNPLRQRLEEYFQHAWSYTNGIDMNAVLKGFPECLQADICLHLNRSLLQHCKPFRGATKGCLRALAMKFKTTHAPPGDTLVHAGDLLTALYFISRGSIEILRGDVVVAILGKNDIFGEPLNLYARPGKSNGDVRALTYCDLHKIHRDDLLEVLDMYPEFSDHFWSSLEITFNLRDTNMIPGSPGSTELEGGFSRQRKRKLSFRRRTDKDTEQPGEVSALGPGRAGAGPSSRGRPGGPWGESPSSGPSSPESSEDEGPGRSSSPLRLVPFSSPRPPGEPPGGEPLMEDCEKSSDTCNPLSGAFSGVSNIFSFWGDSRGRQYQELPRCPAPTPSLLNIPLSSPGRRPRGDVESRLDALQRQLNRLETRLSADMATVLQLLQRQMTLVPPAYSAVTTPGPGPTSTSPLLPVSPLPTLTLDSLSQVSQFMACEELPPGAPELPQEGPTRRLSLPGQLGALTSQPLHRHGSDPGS
Protocol: Test 5-1: Evaluation of Activity for Inhibiting hERG Channel
The activity of the present compound for inhibiting hERG channel was measured by whole-cell patch clamp method with auto patch clamp system, using CHO cell wherein hERG channel involved in human rapidly activating delayed rectifier potassium current (IKr) was forcibly expressed.
hERG-CHO cell purchased from ChanTest was incubated at 37° C. in a CO2 incubator, and the cell was exfoliated from the flask with trypsin to prepare a cell suspension, shortly before the hERG current measurement.
Extracellular fluid: 2 mmol/L CaCl2, 1 mmol/L MgCl2, 10 mmol/L HEPES, 4 mmol/L KCl, 145 mmol/L NaCl, 10 mmol/L glucose
Intracellular fluid: 5.4 mmol/L CaCl2, 1.8 mmol/L MgCl2, 10 mmol/L HEPES, 31 mmol/L KOH, 10 mmol/L EGTA, 120 mmol/L KCl, 4 mmol/L Na2-ATP
Test compound solution: The test compound was dissolved in DMSO by adjusting the concentration to 2 mmol/L or 20 mmol/L to prepare each test compound solution. […] (Measurement of Current Value and Data Analysis)
The cell suspension, the extracellular fluid, the intracellular fluid, and the measurement plate were set in an auto patch clamp system, and the hERG current was measured by whole-cell patch clamp method. […] Each pulse interval was 15 seconds. The data analysis was carried out with Qpatch Assay Software (Biolin Scientific). The test was carried out applying increscently 4 concentrations of each test compound, and the average of the peak tail currents that were obtained by the last 3 stimulations in each applied concentration was determined to be the evaluated data. By using the current inhibition rate for the pre-applied current at each concentration of each test compound, IC50 value was calculated by Hill equation with the software.

human D4 receptor [5] = target: T1, human D4 receptor; assay: Test 1: agonistic activity for human D4 receptor (aequorin/Gα16 luminescence in CHO-K1 cell); type: cell-based; settings: for D4 agonistic activity Emax / Emax: 100% = 10 μmol/L endogenous ligand; for EC50: CHO-K1 cell, aequorin luminescence; for Emax: CHO-K1
Protocol: as §3, §4

[6] = Test 4-2: predictive test of human half-life (monkey distribution volume, serum unbound fraction, Test 3-2 stability); settings: in vivo, predicted using Test 3-2 metabolic stability
Protocol: Test 4-2: Predictive Test of Human Half-Life
(§7) 0.01 mol/L of the present compound in aqueous hydrochloric acid solution was parenterally administered to cynomolgus monkey. 5 minutes, 15 minutes, 30 minutes, 1 hour, 2 hours, 4 hours, 6 hours, and 24 hours after the administration, the blood was collected. The plasma was obtained from the collected blood, the drug concentration in the plasma was measured with a LC-MS, and the monkey distribution volume was calculated from the transition of the concentrations. The unbound fraction rate of the present compound in serum of human and monkey was measured by equilibrium dialysis method.
Using the monkey distribution volume, the unbound fraction rate in serum of human and monkey, and the result of the metabolic stability of human liver microsome which was obtained in Test 3-2, the half-life in human was calculated according to the formula below. “Human distribution volume”=“monkey distribution volume”×“unbound fraction rate in serum of human”/“unbound fraction rate in serum of monkey” “Human hepatic clearance”=(“human hepatic blood flow”×“unbound fraction rate in serum of human”×56.7×“metabolic stability of human liver microsome”)/(“human hepatic blood flow”+“unbound fraction rate in serum of human”×56.7×“metabolic stability of human liver microsome”) “Half-life in human”=0.693×“human distribution volume”/“human hepatic clearance”

[7] = Test 3-2: metabolic stability test of human liver microsome (0.5 or 1.0 mg/mL); type: in vitro ADME; settings: test compound 0.1 μmol/L, 37° C., 30 minutes
Protocol: Test 3-2: Metabolic Stability Test of Human Liver Microsome
as §5, with “In order to evaluate the metabolic stability of human liver microsomes more precisely, the stability” for “The stability”, “evaluated with a suitable concentration of human liver microsome,” for “evaluated”, “microsome: 0.5 or 1.0” for “microsome: 0.1”
as §6

[8] = Test 4-1: predictive test of human half-life (monkey distribution volume, serum unbound fraction, Test 3-1 stability); settings: in vivo, predicted using Test 3-1 metabolic stability
Protocol: Test 4-1: Predictive Test of Human Half-Life
as §7
Using the monkey distribution volume, the unbound fraction rate in serum of human and monkey, and the result of the metabolic stability of human liver microsome which was obtained in Test 3-1, the half-life in human was calculated according to the formula below. “Human distribution volume”=“monkey distribution volume”×“unbound fraction rate in serum of human”/“unbound fraction rate in serum of monkey” “Human hepatic clearance”=(“human hepatic blood flow”×“unbound fraction rate in serum of human”×56.7×“metabolic stability of human liver microsome”)/(“human hepatic blood flow”+“unbound fraction rate in serum of human”×56.7×“metabolic stability of human liver microsome”) “Half-life in human”=0.693×“human distribution volume”/“human hepatic clearance”

SD male rat = assay: Test 6: contextual fear conditioning test; type: in vivo; settings: 10 mg/kg administration
Protocol: Test 6: Contextual Fear Conditioning Test
The antianxiety of the present compounds was evaluated in a manner mentioned below.
The evaluation of an 8-week-old SD male rat with a fear conditioning test system (O'HARA & CO., LTD.) was carried out in 2-day test schedule. On the 1st day of the test, by giving 0.5 mA of electric shock to the rat as unconditioned stimulus 5 times for 6 minutes, the rat was made to learn the relationship the context (the illuminance in the cage: 200 lx) which was given as conditioned stimulus, and phobic stimulus. On the 2nd day, the present compound was subcutaneously administered with saline solution to the rat, or orally administered with methylcellulose suspension to the rat. 0.5 or 1 hour after the administration, the rat was made to softly enter the cage under the condition in which the unconditioned stimulus was not given in the context. The time of cataleptic freezing reaction that the rat took for 5-minute freely-moving period and its ratio were measured. The ratios of cataleptic freezing reaction between the solvent-administration group and the present compound-administration group were compared to be statistically processed.

T1 sequence (P21917 whole entry): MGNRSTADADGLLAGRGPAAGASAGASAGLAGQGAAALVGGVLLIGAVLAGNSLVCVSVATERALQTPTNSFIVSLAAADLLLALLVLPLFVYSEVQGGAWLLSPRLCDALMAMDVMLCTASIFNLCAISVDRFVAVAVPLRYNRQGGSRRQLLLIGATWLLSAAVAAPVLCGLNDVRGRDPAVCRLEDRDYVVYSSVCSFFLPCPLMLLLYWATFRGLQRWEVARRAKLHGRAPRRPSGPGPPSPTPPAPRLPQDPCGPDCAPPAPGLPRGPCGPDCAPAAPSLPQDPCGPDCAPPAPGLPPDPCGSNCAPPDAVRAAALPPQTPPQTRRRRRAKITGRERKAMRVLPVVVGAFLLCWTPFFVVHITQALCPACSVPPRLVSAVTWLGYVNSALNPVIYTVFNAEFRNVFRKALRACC

SMILES	Ki (human D4 receptor [1]) [nM]	Ki (human 5-HT1A receptor [2]) [nM]	5-HT1A agonistic activity Emax (human 5-HT1A receptor [3]) [%]	EC50 (human 5-HT1A receptor [3]) [nM]	Ki (human D2 receptor) [nM]	Metabolic stability of human liver microsome [4] [mL/min/mg protein]	IC50 (hERG channel) [nM]	D4 agonistic activity Emax (human D4 receptor [5]) [%]	EC50 (human D4 receptor [5]) [nM]	Emax (human 5-HT1A receptor [3]) [%]	Emax (human D4 receptor [5]) [%]	half-life [6] [h]	Metabolic stability of human liver microsome [7] [mL/min/mg protein]	half-life [8] [h]	decrease of the cataleptic freezing reaction for the solvent-administration group (SD male rat) [%]
COCC1(C(=O)NCCN2CCC(c3cccc(C(F)(F)F)n3)CC2)CC1 [Example 7]	43	13	106	< 10	> 10000	0.017	5600	58	< 10						
Cc1cccc(C2CCN(CCNC(=O)C(C)(C)C)CC2)n1 [Example 10]			90			0.015	> 10000	85							
Cc1cccc(C2CCN(CCNC(=O)C3CC4CCC3O4)CC2)n1 (stereo not drawn) [Example 3]	198	7.1		38	> 10000	<0.01	32100	76	33.5						
CC(C)(C)C(=O)NCCN1CCC(c2cccc(C(F)(F)F)n2)CC1 [Example 9, 2,2-dimethyl-N-(2-{4-[6-(trifluoromethyl)pyridin-2-yl]piperidin-1-yl}ethyl)propanamide]	8	1.1		< 10	2440	0.025	5900		< 10	84	53	10	0.016		
Cc1cccc(C2CCN(CCNC(=O)C3CCOCC3)CC2)n1 [Example 8, N-{2-[4-(6-Methylpyridin-2-yl)piperidin-1-yl]ethyl}-tetrahydro-2H-pyran-4-carboxamide]	111	1.4		< 10	> 10000	0.017	44300		37.1	71	65	59	0.023	9.2	41.0
O=C(NCCN1CCC(c2cccc(C(F)(F)F)n2)CC1)C1CCCOC1 (stereo not drawn) [Example 2]	109	11	86	323	> 10000	0.069	> 10000	61	58.9						
Cc1cccc(C2CCN(CCNC(=O)C3CCC(F)(F)CC3)CC2)n1 [Example 4]	26	0.4	90	< 10	> 10000	<0.01	4000	71	25.1						
